Read-outs that look alike come from different tables or passages of the source.
Key:
[1] = biological target: sigma receptor; assay: [3H]DTG displacement radioligand binding assay, guinea pig brain membranes
[2] = test system: mu, delta and kappa receptors; details: cited from earlier work
[3] = test system: D1 subclass of dopamine receptors; details: cited from earlier work
[4] = test system: D2 class of striatal dopamine receptors; details: cited from earlier work
[5] = test system: adrenergic, muscarinic, cholinergic, or histaminergic sites; details: cited from earlier work
[6] = test system: rats; details: rat, in vivo; cited from earlier work
[7] = test system: sigma receptor; details: cited from earlier work
[8] = test system: dopamine-stimulated cAMP production; details: in vitro; cited from earlier work
[9] = test system: rhesus monkeys; details: introduction of foreign objects into cages; cited from earlier work
[10] = test system: anxiety behavior of mice; assay: black:white test box (light/dark exploration) of mice; details: mouse, in vivo, ip
[11] = test system: social interaction of rats; assay: rat social interaction test; type: in vivo, rat (male Hooded Lister); details: i.p.; 10 min session; n=6, P<0.001
Excerpt: A second preferred animal model is the rat social interaction test described by Jones, B. J. et al., supra, wherein the time that two mice spend in social interaction is quantified. […] Both the familiarity and the light level of the test arena may be manipulated. Undrugged rats show the highest level of social interaction when the test arena is familiar and is lit by low light. Social interaction declines if the arena is unfamiliar to the rats or is lit by bright light. Anxiolytic agents prevent this decline. The overall level of motor activity may also be measured to allow detection of drug effects specific to social behaviors.
Male Hooded Lister rats (Glaxo bred, 200-250 g), were housed 5 to a cage and were kept in the laboratory environment for at least a week before testing. Rats paired in the test were taken from separate cages.
The test arena consisted of an open-topped box, 62×62×33 cm with a 7×7 matrix of infra-red photocell beams in the walls, 2.5 cm from the floor.
Testing involved placing each member of a pair of rats in opposite comers of the arena and then leaving them undisturbed for 10 min. while recording their behavior remotely on videotape. The behavioral assessments were made subsequently from the recordings. The time spent in social interaction was measured and expressed as a cumulative total for the 10 min session. The behaviors that comprised social interaction were: following with contact, sniffing (but not sniffing of the hindquarters), crawling over and under, tumbling, boxing and grooming.

[12] = test system: anxiety behavior of mice; details: mouse, in vivo, ip, 10 mg/kg
[13] = test system: dopamine-stimulated production of cAMP; details: homogenates of rat striatum and olfactory tubercle; cited from earlier work
[14] = test system: dopamine synthesis; details: cited from earlier work
[15] = test system: anxiety; details: in vivo; cited from earlier work
[16] = test system: apomorphine-induced mesolimbic behaviors; details: without altering the intensity of stereotypic behaviors; cited from earlier work

SMILES: C=CCN1CCC2(C)c3cc(O)ccc3CC1C2C (single isomer, unassigned; (-)) [(-)SKF 10,047, N-allyl-normetazocine, reference compound]
- IC50 ([1]; read-out: IC50 binding values): 4 ± 0.566 µM
- IC50 ([1]; read-out: IC50 vs. [3H]DTG): 4 µM
- binding to delta, mu and kappa receptors [2]: apparently labeled the mu and kappa receptors but not the sigma receptors

SMILES: OC(CCCN1CCN(c2ncc(F)cn2)CC1)c1ccc(F)cc1 (stereo not drawn) [BMY 14802]
- interaction with D1 subclass / inhibition of [3H]SCH 23390 binding in vitro [3]: does not appear to interact with the D1 subclass of dopamine receptors
- maximal density of [3H]spiperone-labeled D2 site ([4]; chronic administration (20 days) to rats): did not increase the maximal density
- inhibition of [3H]spiperone binding to D2 [4]: does not inhibit the binding of [^3 H]spiperone
- binding to adrenergic, muscarinic, cholinergic, or histaminergic sites [5]: does not bind to the adrenergic, muscarinic, cholinergic, or histaminergic sites
- catalepsy [6]: did not cause catalepsy in rats
- binding to the sigma receptor [7]: binds with relatively high affinity to the sigma receptor
- potency of dextrorotatory vs levorotatory enantiomer at inhibiting sigma binding [7]: 10 times
- inhibition of dopamine-stimulated cAMP production [8]: does not inhibit dopamine-stimulated cAMP production

SMILES: O=C1CC2(CCCC2)CC(=O)N1CCCCN1CCN(c2ncccn2)CC1 [Buspirone]
- taming of the aggressive response [9]: efficacy in a predictive animal model

SMILES: CN1C(=O)CN=C(c2ccccc2)c2cc(Cl)ccc21 [diazepam, reference compound]
- displacement of [3H]DTG [1]: no significant displacement
- numbers of line crossings and/or rears in the light compartment [10]: increased at the expense of those in the dark compartment
- proportion of time in light area / percentage of time in black compartment [10]: dose-dependently increased the proportion of time the mice spent in the larger, lighted area
- time spent in social interaction [11]: significantly increased social interactions
- sedation: numbers of rears and line crossings [12]: decreased significantly showing that the drug was markedly sedative

SMILES: C[C@@H]1CN(CCCn2c3ccccc3c3ccccc32)C[C@H](C)N1.Cl.Cl [rimcazole, cis-9-[3-(3,5-dimethyl-1-piperazinyl)propyl]carbazole dihydrochloride]
- effect on dopamine-stimulated cAMP [13]: does not affect dopamine-stimulated production of cAMP
- effect on rate of dopamine synthesis [14]: does not accelerate the rate of dopamine synthesis
- anxiolytic activity [15]: determined to have anxiolytic activity
- antagonism of apomorphine-induced mesolimbic behaviors [16]: ability to antagonize apomorphine-induced mesolimbic behaviors selectively

Source: patent publication US5574070A, “Substituted guanidines having high binding to the sigma receptor and the use thereof” (priority 1993, dated 1996)
